From patent US20090130165A1, “MIF Inhibitors” (Cortical Pty Ltd, priority 2005, published 2009)
Converted amounts (≈) assume the structure as drawn.

Key:
[1] = target: T1, Recombinant human MIF protein (Homo sapiens, UniProt P14174); assay: Inhibition of MIF tautisomerase activity (L-dopachrome); type: biochemical; conditions: mean±standard deviation of 2-4 experiments; for inhibition at 50 µM: 50 uM compound; for inhibition at 100 µM: 100 uM compound
T1 sequence (P14174 2-115 limits assumed): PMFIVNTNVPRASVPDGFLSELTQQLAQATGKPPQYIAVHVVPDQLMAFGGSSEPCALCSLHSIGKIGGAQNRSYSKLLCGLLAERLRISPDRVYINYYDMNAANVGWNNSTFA
Method: MIF protein has the ability in vitro to catalyze the tautisomerization of dopachrome^(15).
Recombinant human MIF protein was pre-incubated with compounds as indicated prior to the addition of L-dopachrome substrate. Tautomerase activity was determined by measurement of die decrease in absorbance at 475 nm after 2 min. […]

[2] = Lower limits of aqueous solubility by nephelometry; type: physicochemical; conditions: phosphate-buffered saline with 0.005% (v/v) P20 and 5% DMSO, aqueous with cosolvent or surfactant or cyclodextrin, kinetic from dmso stock, 0.005% (v/v) P20, 5% DMSO, read-out: Solubility Lower Limit Range
Method: Lower limits of aqueous compound solubility were determined in a nepholometer in phosphate-buffered saline containing 0.005% (v/v) P20 and a final concentration of 5% DMSO. Briefly, compounds were initially dissolved in DMSO as a 10 mM stock solution and diluted to 1 mM and 0.5 mM working solutions with neat DMSO. The compounds were then titrated in DMSO and a constant volume of DMSO stock added to filtered PBS/P20 solution so that the final DMSO concentration was 5%. The solubility was then determined in clear, flat-bottom 96-well plates using the nephelometer and reported as the concentration range at which the compound begins to precipitate from solution.

[3] = test system: LPS-induced IL-6 production in RAW264.7 mouse macrophage cell line; assay: Inhibition of LPS-induced production of IL-6 in RAW264.7 macrophages; type: cell-based; conditions: 50 uM compound, 100 ng/ml LPS 4 hr, RAW264.7 cells, relative to LPS+DMSO control
Method: MIF is an important factor in the innate immune response to toxins such as the bacterial endotoxin lipopolysaccharide (LPS). […] A compound with the ability to inhibit the biological activity of MIF would therefore inhibit the activation of cytokine production by macrophages in response to LPS. The RAW264.7 mouse macrophage cell line was propagated in DMEM/10% foetal calf serum (FCS) at 37° C. in 5% CO2. 24 hr prior to assay cells were seeded in 96-well tissue culture plates. Cells were allowed to adhere for 4 hr prior to transfer to DMEM/0.5% FCS for 18 hr. Cells were then treated with 50 uM compound in DMSO for 30 min prior to stimulation for 4 hr with 100 ng/ml LPS. Cell culture supernatants were then collected from each well and assayed for IL-6 levels by ELISA (R&D Systems) according to the manufacturer's instructions.

C57Bl/6j mice = assay: In vivo assay of MIF antagonism: murine endotoxic shock model, serum TNF; set-up: species or system mouse; conditions: intra-peritoneal, 10, 1 and 0.1 mg/kg at 24 hours and 1 hour before LPS 1 mg/kg (FIG. 3)
Method: The activities of compounds were studied in the murine endotoxic shock model. This model has been previously shown to be dependent on MIF^(14). Administration of a compound which inhibits the cytokine activity of MIF would be expected to result hi a reduction in serum level s of the pro-inflammatory cytokine TNF.
Endotoxaemia was induced by intra-peritoneal Injection of C57Bl/6j mice with lipopolysaccharide (LPS) (1 mg/kg) in 200 μl saline. Animals were treated with either a saline solution (control) only, or LPS with vehicle or compounds B1 and A3 in vehicle at doses of 10, 1 and 0.1 mg/kg body weight, administered by intra-peritoncal injection at 24 hours and 1 hour before intra-peritoneal LPS injection. After 1 hour mice were humanely killed by CO2 inhalation then neck dislocation. Serum was obtained from blood obtained by cardiac puncture prior to death and measured for TNF levels by ELISA according to the manufacturer's instructions.

inhibition at 50 µM [1] [%] | inhibition at 100 µM [1] [%] | melting point | Compound | inhibition at 50 µM [3] [%] | other results
12 ± 6 | 27 ± 6 | 148 to 150 °C | Cn1c(=O)n(C)c2cc(C(=O)CSCCC(=O)O)c(Cl)cc21 [Compound 28, 3-((2-(6-chloro-1,3-dimethyl-2-oxo-2,3-dihydro-1H-benzimidazol-5-yl)-2-oxoethyl)thio)propanoic acid] | – | –
– | – | 230 °C (dec.) | O=C(O)CSCC(=O)c1ccc2[nH]c(=O)[nH]c2c1 [Compound 6, ((2-oxo-2-(2-oxo-2,3-dihydro-1H-benzimidazol-5-yl)ethyl)thio)acetic acid] | – | solubility [2]: 67 to 250 µg/mL (≈ 252 to 939 µM)
15 ± 6 | 34 ± 12 | 80 to 81 °C | CCCCSCC(=O)c1ccc2c(c1)n(C)c(=O)n2C [Compound 24, 5-((butylthio)acetyl)-1,3-dimethyl-1,3-dihydro-2H-benzimidazol-2-one] | – | –
4 ± 3 | 12 ± 4 | 199 to 201 °C | CCCCSCC(=O)c1cc2[nH]c(=O)[nH]c2cc1Cl [Compound 25, 5-((butylthio)acetyl)-6-chloro-1,3-dihydro-2H-benzimidazol-2-one] | – | –
– | – | 75 to 77 °C | COC(=O)CCSCC(=O)c1cc2c(cc1Cl)NC(=O)C2 [Compound 12, methyl 3-((2-(6-chloro-2-oxo-2,3-dihydro-1H-indol-5-yl)-2-oxoethyl)thio)propanoate] | 60 | –
– | – | 86 to 87 °C | CC(=O)OCCCCCCSCC(=O)c1ccc2c(c1)CC(=O)N2 [Compound 8, 6-((2-oxo-2-(2-oxo-2,3-dihydro-1H-indol-5-yl)ethyl)thio)hexyl acetate] | 42 ± 11 | –
– | – | – | O=C1Cc2cc(C(=O)CSCCCCCCO)c(Cl)cc2N1 [Compound 11, 6-chloro-5-(((6-hydroxyhexyl)thio)acetyl)-1,3-dihydro-2H-indol-2-one] | 48 ± 24 | –
– | – | – | O=C(CSCCCCCCO)c1ccc2[nH]c(=O)oc2c1 [Compound 15, 6-(((6-Hydroxyhexyl)thio)acetyl)-1,3-benzoxazol-2(3H)-one] | 42 ± 40 | solubility [2]: 77 to 250 µg/mL (≈ 249 to 808 µM); suppression of LPS-induced serum TNF levels, in words (C57Bl/6j mice): significant dose-dependent suppression
– | – | – | O=C(O)CCSCC(=O)c1ccc2[nH]c(=O)sc2c1 [Compound 18, 3-((2-Oxo-2-(2-oxo-23-dihydro-1,3-benzothiazol-6-yl)ethyl)thio)propanoic acid] | 49 ± 34 | –
– | – | 105 to 108 °C | O=C1Cc2cc(C(=O)CSCCCCCCO)ccc2N1 [Compound 9, 5-(((6-hydroxyhexyl)thio)acetyl)-1,3-dihydro-2H-indol-2-one] | – | –
– | – | 180 to 181 °C | O=C(CSCCCCCCO)c1ccc2[nH]c(=O)[nH]c2c1 [Compound 10, 5-(((6-hydroxyhexyl)thio)acetyl)-1,3-dihydro-2H-benzimidazol-2-one] | 25 | –
0 | 3 ± 2 | 174 to 176 °C | Cn1c(=O)n(C)c2cc(C(=O)CSCCC(=O)O)ccc21 [Compound 23, 3-((2-(1,3-dimethyl-2-oxo-2,3-dihydro-1H-benzimidazol-5-yl)-2-oxoethyl)thio) propanoic acid] | – | –
– | – | – | CCCCSCC(=O)c1ccc2c(c1)CC(=O)N2 [Compound 21, 5-((Butylthio)acetyl)-1,3-dihydro-2H-indol-2-one] | 41 ± 54 | –
4 ± 6 | 4 ± 7 | 211 to 213 °C | CCCCSCC(=O)c1ccc2[nH]c(=O)[nH]c2c1 [Compound 22, 5-((butylthio)acetyl)-1,3-dihydro-2H-benzimidazol-2-one] | – | –
2 ± 3 | 4 ± 6 | – | O=C(O)CCSCC(=O)c1cc2[nH]c(=O)[nH]c2cc1Cl [Compound 26, 3-((2-(6-chloro-2-oxo-2,3-dihydro-1H-benzimidazol-5-yl)-2-oxoethyl)thio)propanoic acid] | – | –
– | – | – | CCCCSCC(=O)c1cc2c(cc1Cl)NC(=O)C2 [Compound 20, 5-((Butylthio)acetyl)-6-chloro-1,3-dihydro-2H-indol-2-one] | 59 ± 11 | –
– | – | – | CCCCSCC(=O)c1ccc2[nH]c(=O)oc2c1 [Compound 16, 6-((Butylthio)acetyl)-1,3-benzoxazol-2(3H)-one] | 12 ± 63 | –
– | – | 177 to 178.5 °C | COC(=O)CSCC(=O)c1ccc2[nH]c(=O)[nH]c2c1 [Compound 5, methyl ((2-oxo-2-(2-oxo-2,3-dihydro-1H-benzimidazol-5-yl)ethyl)thio)acetate] | – | –
– | – | – | O=C(O)CCSCC(=O)c1ccc2[nH]c(=O)oc2c1 [Compound 14, 3-((2-Oxo-2-(2-oxo-2,3-dihydro-1,3-benzoxazol-6-yl)ethyl)thio)propanoic acid] | – | solubility [2]: > 140 µg/mL
– | – | 106 to 108 °C | COC(=O)CCSCC(=O)c1ccc2c(c1)CC(=O)N2 [Compound 1, methyl 3-((2-oxo-2-(2-oxo-2,3-dihydro-1H-indol-5-yl)ethyl)thio)propanoate] | 13 ± 23 | solubility [2]: 18 to 63 µg/mL (≈ 61.4 to 215 µM)
28 ± 17 | 44 ± 12 | – | CCCCSCC(=O)c1cc2c(cc1Cl)n(C)c(=O)n2C [Compound 27, 5-((butylthio)acetyl)-6-chloro-1,3-dimethyl-1,3-dihydro-2H-benzimidazol-2-one] | – | –
4 ± 1 | 11 ± 4 | 120 to 121 °C | Cn1c(=O)sc2cc(C(=O)CSCCC(=O)O)c(Cl)cc21 [Compound 32, 3-((2-(5-chloro-3-methyl-2-oxo-2,3-dihydro-1,3-benzothiazol-6-yl)-2-oxoethyl)thio)propanoic acid] | – | –
12 ± 11 | 27 ± 16 | 195 to 197 °C | O=C(O)CCSCC(=O)c1cc2sc(=O)[nH]c2cc1Cl [Compound 30, 3-((2-(5-chloro-2-oxo-2,3-dihydro-1,3-benzothiazol-6-yl)-2-oxoethyl)thio)propanoic acid] | – | –
– | – | 320 °C (dec.) | O=C(CSCCO)c1ccc2[nH]c(=O)[nH]c2c1 [Compound 7, 5-(((2-hydroxyethyl)thio)acetyl)-1,3-dihydro-2H-benzimidazol-2-one] | – | –
24 ± 1 | 42 ± 9 | 102.5 to 115 °C | CCCCSCC(=O)c1cc2sc(=O)[nH]c2cc1Cl [Compound 29, 6-((butylthio)acetyl)-5-chloro-1,3-benzothiazol-2(3H)-one] | – | –
2 ± 3 | 8 ± 8 | – | CCCCSCC(=O)c1cc2sc(=O)n(C)c2cc1Cl [Compound 31, 6-((butylthio)acetyl)-5-chloro-3-methyl-1,3-benzothiazol-2(3H)-one] | – | –
– | – | – | O=C(O)CSCC(=O)c1ccc2[nH]c(=O)oc2c1 [Compound 17, ((2-Oxo-2-(2-oxo-2,3-dihydro-1,3-benzoxazol-6-yl)ethyl)thio)acetic acid] | 8 ± 90 | –
